pIC50: −log10 of the molar value.

Broadly, the pIC50 is −log10 of the IC50, conventionally taken in molar units. Higher therefore signals a small IC50.

The experiment has as its target Platelet-activating factor receptor (Oryctolagus cuniculus). Nature of the experiment: In vitro inhibition of PAF induced aggregation of rabbit platelets.
For `C=CCCCCCCOCCCCCCOC1CC(COC(=O)N(Cc2cccc[n+]2CC)C(C)=O)CO1` (stereo not given), the pIC50 is 7.60.

Molecule `CC[n+]1ccccc1CN(C(C)=O)C(=O)OCC1COC(OCCCc2ccccc2)C1` (stereo not given) gave a pIC50 of 6.72.

In the case of `CC[n+]1ccccc1CN(C(C)=O)C(=O)OCC1COC(OCCCCCCOCCCCCc2ccccc2)C1` (stereo not given), the pIC50 was 7.82.

For `CC[n+]1ccccc1CN(C(C)=O)C(=O)OCC1COC(OCCCCCCOCc2ccc(-c3ccccc3)cc2)C1` (stereo not given), the pIC50 is 7.82.

`CCCCCCCCCCCCCCCCCCCCOC1CC(COC(=O)N(Cc2cccc[n+]2CC)C(C)=O)CO1` (stereo not given) had a pIC50 of 7.40.

`CCCCCCCCCCCCCCCCOC1CC(COC(=O)N(Cc2cccc[n+]2CC)C(C)=O)CO1` (stereo not given) gave a pIC50 of 8.01. This pIC50 is 0.61 log units higher than that of the molecule before.

Regarding `CC[n+]1ccccc1CN(C(C)=O)C(=O)OCC1COC(OCCCCCCOCCCc2ccccc2)C1` (stereo not given), the pIC50 was 7.29.

`CCOC1CC(COC(=O)N(Cc2cccc[n+]2CC)C(C)=O)CO1` (stereo not given) showed a pIC50 of 5.55.

`CC[n+]1ccccc1CN(C(C)=O)C(=O)OCC1COC(OCCCCCCCCCCCCCCCCOC)C1` (stereo not given) gave a pIC50 of 8.68.

`CC[n+]1ccccc1CN(C(C)=O)C(=O)OCC1COC(OCCC(c2ccccc2)c2ccccc2)C1` (stereo not given) showed a negative logarithm of the IC50 (pIC50) of 6.59.

(Values after BindingDB's records for doi:10.1021/jm00082a007 (J. Uriach & Cía., 1992).)
